# Data taken from US6486206B1, “Mechanical and pharmacologic therapies to treat cardiac arrest” (CPRx Inc., priority 1997, dated 2002).
# System: porcine model of ventricular fibrillation
# Conditions: pigs, standard CPR, 2 minutes after drug administration
# Procedure: Vital organ blood flow was also assessed after four minutes of ventricular fibrulation, four minutes of standard CPR, and two minutes after drug administration.
compound,measurement,value
CNC[C@H](O)c1ccc(O)c(O)c1 [epinephrine],endocardial:epicardial ratio (mean±SEM),0.81±0.21
